Measured values: PubChem BioAssay AID330 (DTP/NCI, 2004)
Values joined by “and” are separate entries in the source; they are usually repeats but may differ in a detail not shown here. Identical values can stand only once. Inconclusive results and toxic doses are left out. Peptide text beside a SMILES is read from it. * marks the point of attachment. Cbz = O=C(OCc1ccccc1)*

Test system: P388 leukemia ip, CD2F1 mice, survival T/C
Experiment: NCI In Vivo Anticancer Drug Screen. Data for tumor model P388 Leukemia (intraperitoneal) in CD2F1 (CDF1) mice
Conditions: endpoint: median survival time, higher = longer survival
Summary of the method: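 Mice carrying the transplanted tumor received test compound or vehicle. Survival was recorded in each group, and the value is the treated-group measurement divided by that of the vehicle-treated control group.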

[1] = dose: 12.5 mg/kg/injection, schedule: Q01DX009 (ip), vehicle: saline with Tween-80
[2] = dose: 25.0 mg/kg/injection, schedule: Q01DX009 (ip), vehicle: saline with Tween-80
[3] = dose: 50.0 mg/kg/injection, schedule: Q01DX009 (ip), vehicle: saline with Tween-80
[4] = dose: 12.5 mg/kg/injection, schedule: Q01DX009 (ip), vehicle: saline
[5] = dose: 25.0 mg/kg/injection, schedule: Q01DX009 (ip), vehicle: saline
[6] = dose: 50.0 mg/kg/injection, schedule: Q01DX009 (ip), vehicle: saline
[7] = dose: 50.0 mg/kg/injection, schedule: Q01DX005 (ip), vehicle: Klucel (hydroxypropylcellulose) (HPC)
[8] = dose: 100.0 mg/kg/injection, schedule: Q01DX005 (ip), vehicle: Klucel (hydroxypropylcellulose) (HPC)
[9] = dose: 200.0 mg/kg/injection, schedule: Q01DX005 (ip), vehicle: Klucel (hydroxypropylcellulose) (HPC)
[10] = dose: 60.0 mg/kg/injection, schedule: Q01DX005 (ip), vehicle: saline with Tween-80
[11] = dose: 120.0 mg/kg/injection, schedule: Q01DX005 (ip), vehicle: saline with Tween-80
[12] = dose: 240.0 mg/kg/injection, schedule: Q01DX005 (ip), vehicle: saline with Tween-80
[13] = dose: 25.0 mg/kg/injection, schedule: Q01DX005 (ip), vehicle: Klucel (hydroxypropylcellulose) (HPC)
[14] = dose: 50.0 mg/kg/injection, schedule: Q01DX005 (ip), vehicle: saline with Tween-80
[15] = dose: 100.0 mg/kg/injection, schedule: Q01DX005 (ip), vehicle: saline with Tween-80
[16] = dose: 12.5 mg/kg/injection, schedule: Q01DX005 (ip), vehicle: Klucel (hydroxypropylcellulose) (HPC)

Compound: O=C(N=Nc1c(O)[nH]c2ccccc12)C(=O)Nc1cccc(C(F)(F)F)c1
- T/C [1]: 92 % of control
- T/C [2]: 89 % of control
- T/C [3]: 86 % of control

Compound: C1=Cc2ccccc2/C1=C/c1cc2c3c(c1)CCCN3CCC2
- T/C (dose: 60.0 mg/kg/injection, schedule: Q01DX005 (ip), vehicle: Klucel (hydroxypropylcellulose) (HPC)): 95 % of control
- T/C (dose: 120.0 mg/kg/injection, schedule: Q01DX005 (ip), vehicle: Klucel (hydroxypropylcellulose) (HPC)): 91 % of control
- T/C (dose: 240.0 mg/kg/injection, schedule: Q01DX005 (ip), vehicle: Klucel (hydroxypropylcellulose) (HPC)): 92 % of control

Compound: CCOC(=O)c1nnn(Cc2ccccc2)c1N
- T/C [1]: 104 % of control
- T/C [2]: 100 % of control
- T/C [3]: 100 % of control
- T/C (dose: 100.0 mg/kg/injection, schedule: Q01DX009 (ip), vehicle: saline with Tween-80): 104 % of control

Compound: Nc1nc([Se])c2ncn(C3OC(CO)C(O)C3O)c2n1 (stereo unspecified)
- T/C (dose: 4.0 mg/kg/injection, schedule: Q01DX009 (ip), vehicle: saline): 150 % of control and 157 % of control
- T/C (dose: 6.25 mg/kg/injection, schedule: Q01DX009 (ip), vehicle: saline): 159 % of control
- T/C (dose: 8.0 mg/kg/injection, schedule: Q01DX009 (ip), vehicle: saline): 164 % of control and 179 % of control
- T/C (dose: 8.0 mg/kg/injection, schedule: Q01DX009 (ip), vehicle: water): 157 % of control
- T/C [4]: 183 % of control
- T/C (dose: 16.0 mg/kg/injection, schedule: Q01DX009 (ip), vehicle: saline): 157 % of control and 198 % of control and 202 % of control
- T/C (dose: 16.0 mg/kg/injection, schedule: Q01DX009 (ip), vehicle: water): 160 % of control and 161 % of control
- T/C [5]: 186 % of control
- T/C (dose: 32.0 mg/kg/injection, schedule: Q01DX009 (ip), vehicle: saline): 121 % of control and 247 % of control and 98 % of control
- T/C (dose: 32.0 mg/kg/injection, schedule: Q01DX009 (ip), vehicle: water): 190 % of control and 191 % of control
- T/C [6]: 96 % of control

Compound: CC(NC(=O)OCc1ccccc1)C(=O)NC(CO)C(N)=O (stereo not drawn) (Cbz-Ala-Ser-NH2; configuration not given here)
- T/C [7]: 97 % of control
- T/C [8]: 98 % of control
- T/C [9]: 102 % of control

Compound: CCC(C)NCC/C(=C\[Si](C)(C)C)c1ccccc1 (stereo unspecified)
- T/C (dose: 100.0 mg/kg/injection, schedule: Q01DX001 (ip), vehicle: saline with Tween-80): 100 % of control
- T/C (dose: 200.0 mg/kg/injection, schedule: Q01DX001 (ip), vehicle: saline with Tween-80): 106 % of control

Compound: O=C(NCCN1CCOCC1)c1cc2ccccc2oc1=O
- T/C [10]: 93 % of control
- T/C [11]: 91 % of control
- T/C [12]: 92 % of control

Compound: CNc1nc(-c2ccc(OC)cc2)c(-c2ccc(OC)cc2)[nH]1
- T/C (dose: 25.0 mg/kg/injection, schedule: Q04DX002 (ip), vehicle: saline with Tween-80): 108 % of control and 111 % of control
- T/C (dose: 50.0 mg/kg/injection, schedule: Q04DX002 (ip), vehicle: saline with Tween-80): 107 % of control
- T/C (dose: 100.0 mg/kg/injection, schedule: Q04DX002 (ip), vehicle: saline with Tween-80): 99 % of control

Compound: NC(CCCCNC(=O)CCCCCCCCC(=O)NCCCCC(N)C(=O)O)C(=O)O (stereo unspecified)
- T/C (dose: 50.0 mg/kg/injection, schedule: Q01DX009 (ip), vehicle: suspension in saline): 95 % of control
- T/C (dose: 100.0 mg/kg/injection, schedule: Q01DX009 (ip), vehicle: suspension in saline): 105 % of control
- T/C (dose: 200.0 mg/kg/injection, schedule: Q01DX009 (ip), vehicle: suspension in saline): 100 % of control

Compound: COc1cc2oc3cc(OC)c(OC)c(CC=C(C)C)c3c(=O)c2c(O)c1CC=C(C)C
- T/C [13]: 87 % of control
- T/C [7]: 100 % of control
- T/C [8]: 86 % of control and 97 % of control
- T/C [9]: 105 % of control

Compound: COc1cccc(OC)c1OCc1ccc(OCc2ccccc2)cc1
- T/C [14]: 100 % of control
- T/C [15]: 95 % of control
- T/C (dose: 200.0 mg/kg/injection, schedule: Q01DX005 (ip), vehicle: saline with Tween-80): 105 % of control

Compound: C=CCOc1ccccc1/C(CC)=N/N(C)C
- T/C [6]: 111 % of control
- T/C (dose: 100.0 mg/kg/injection, schedule: Q01DX009 (ip), vehicle: saline): 100 % of control

Compound: c1cc2c3c(cccc3c1)-c1nc3c(ccc4ccccc43)nc1-2
- T/C (dose: 50.0 mg/kg/injection, schedule: Q01DX009 (ip), vehicle: Klucel (hydroxypropylcellulose) (HPC)): 107 % of control
- T/C (dose: 100.0 mg/kg/injection, schedule: Q01DX009 (ip), vehicle: Klucel (hydroxypropylcellulose) (HPC)): 101 % of control
- T/C (dose: 200.0 mg/kg/injection, schedule: Q01DX009 (ip), vehicle: Klucel (hydroxypropylcellulose) (HPC)): 93 % of control
- T/C (dose: 400.0 mg/kg/injection, schedule: Q01DX009 (ip), vehicle: Klucel (hydroxypropylcellulose) (HPC)): 107 % of control

Compound: C(=C\c1ccc2cc(C3=NCCN3)[nH]c2c1)/c1ccc(Oc2ccc(C3=NCCN3)cc2)cc1 (tested in a mixture with another compound)
- T/C (dose: 6.25 mg/kg/injection, schedule: Q01DX005 (ip), vehicle: Klucel (hydroxypropylcellulose) (HPC)): 111 % of control
- T/C [16]: 97 % of control
- T/C [13]: 100 % of control

Compound: O=C/C(=N/Nc1ccc([N+](=O)[O-])cc1)c1ccccc1
- T/C (dose: 37.5 mg/kg/injection, schedule: Q01DX009 (ip), vehicle: saline with Tween-80): 94 % of control
- T/C (dose: 75.0 mg/kg/injection, schedule: Q01DX009 (ip), vehicle: saline with Tween-80): 90 % of control
- T/C (dose: 150.0 mg/kg/injection, schedule: Q01DX009 (ip), vehicle: saline with Tween-80): 86 % of control

Compound: CC1C(c2ccccc2)NC(c2ccccc2)CC1(N)C#N (stereo unspecified)
- T/C [7]: 95 % of control
- T/C [8]: 95 % of control
- T/C [9]: 93 % of control

Compound: COc1ccc(Cc2cc(N=O)c(OC)cc2O)cc1
- T/C [14]: 90 % of control
- T/C [15]: 87 % of control

Compound: CC(CN1CCCCC1)NC(=O)c1scnc1-c1ccccc1 (stereo unspecified)
- T/C [10]: 116 % of control
- T/C [11]: 98 % of control

Compound: CC1CCC2N(C1)CC1C3(O)CC4(O)C(CCC5C(=O)C(O)CCC54C)C3(O)CC(O)C1(O)C2(C)O (stereo unspecified)
- T/C (dose: 1.87 mg/kg/injection, schedule: Q01DX005 (ip), vehicle: Klucel (hydroxypropylcellulose) (HPC)): 96 % of control
- T/C (dose: 3.75 mg/kg/injection, schedule: Q01DX005 (ip), vehicle: Klucel (hydroxypropylcellulose) (HPC)): 97 % of control
- T/C (dose: 7.5 mg/kg/injection, schedule: Q01DX005 (ip), vehicle: Klucel (hydroxypropylcellulose) (HPC)): 99 % of control and 97 % of control

Compound: COc1ccc2c(c1)CCC1C2=CC(=O)/C1=C\[O-].COc1ccc2c(c1)CCC1C2=CC(=O)/C1=C\[O-].[Cu+2] (stereo unspecified)
- T/C (dose: 33.0 mg/kg/injection, schedule: Q04DX003 (ip), vehicle: saline with Tween-80): 109 % of control
- T/C (dose: 50.0 mg/kg/injection, schedule: Q04DX003 (ip), vehicle: saline with Tween-80): 100 % of control and 90 % of control
- T/C (dose: 75.0 mg/kg/injection, schedule: Q04DX003 (ip), vehicle: saline with Tween-80): 100 % of control

Compound: O=[N+]([O-])c1ccc(/C(=C\c2ccc(-c3ccccc3)o2)S(=O)(=O)c2ccccc2)o1
- T/C [4]: 89 % of control
- T/C [5]: 89 % of control

Compound: CCn1c(=O)n(Cc2ccccc2)c(=O)c2ccccc21
- T/C [10]: 93 % of control
- T/C [11]: 93 % of control
- T/C [12]: 91 % of control

Compound: CC(C)(CNC(=O)C12CC3CC(CC(C3)C1)C2)NC(=O)C12CC3CC(CC(C3)C1)C2
- T/C [16]: 98 % of control
- T/C [13]: 107 % of control
- T/C [7]: 93 % of control
- T/C [8]: 88 % of control

Compound: CCOC(=O)c1ccc(NC(=O)Nc2nc3ccccc3s2)cc1
- T/C (dose: 25.0 mg/kg/injection, schedule: Q01DX009 (ip), vehicle: distilled water + Tween-80): 97 % of control
- T/C (dose: 50.0 mg/kg/injection, schedule: Q01DX009 (ip), vehicle: distilled water + Tween-80): 97 % of control
- T/C (dose: 100.0 mg/kg/injection, schedule: Q01DX009 (ip), vehicle: distilled water + Tween-80): 90 % of control
- T/C (dose: 200.0 mg/kg/injection, schedule: Q01DX009 (ip), vehicle: distilled water + Tween-80): 90 % of control
- T/C (dose: 400.0 mg/kg/injection, schedule: Q01DX009 (ip), vehicle: distilled water + Tween-80): 90 % of control
